Source: patent EP4722228A1, “NEW COMPOUND TARGETING MUSK AND USE THEREOF” (The University of Tokyo, priority 2023, dated 2024)
Bridge positions count the residues as written; N and C are the ends. Square brackets hold non-standard residues; d marks the D form. Peptide text beside a SMILES is read from it. I, II: the chains in the order shown. * marks the point of attachment. Palmitoyl = CCCCCCCCCCCCCCCC(=O)*; PEG3 = NCCOCCOCCOCCC(=O)O; Dap = NC[C@H](N)C(=O)O

System: rat PTMG model using anti-acetylcholine receptor monoclonal antibody (mAb35)
Experiment: Body weight change in rat PTMG model (myasthenia gravis model animals)
Assay type: in vivo
Settings: 0 to 72 hr
Method: (§1) 5-week-old female rats (n=20, LEW/CrlCrlj, 4 weeks old when carried in, Jackson Laboratory Japan) were divided into four groups (Group A, Group B, Group C, and Group D) using body weight measurement results as indexes. Vehicle was administered to Group A, and the test compound MuSK7-pal dissolved in vehicle was administered intravenously to each of Group B (3 mg/kg), Group C (2 mg/kg), and Group D (1 mg/kg) (Day 0). Two hours after intravenous administration, an anti-nicotinic acetylcholine receptor monoclonal antibody (mAb35, National Hospital Organization Nagasaki Kawatana Medical Center) dissolved in PBS (pH 7.4) as a drug for inducing the pathology of myasthenia gravis was administered intraperitoneally to all animals at 200 µg/rat (Day 0). The vehicle, which was a solvent of the compound, was phosphate-buffered saline (PBS) at pH 7.4 containing 20% hydroxypropyl-β-cyclodextrin and 0.02% polysorbate 80 (the same applies to Example 3(2)).
Next, the body weight of the animals was measured before antibody administration (pre) and at 0, 9, 24, 33, 48, 57, and 72 hours (hr) after antibody administration. The movement, muscle strength, and grip strength of the animals were evaluated by the following tests.
as §1, with “(n=24,” for “(n=20,”, “(0.5” for “(3”, “(0.25” for “(2”, “(0.1” for “(1”, “0).” for “0). The vehicle, which was a solvent of the compound, was phosphate-buffered saline (PBS) at pH 7.4 containing 20% hydroxypropyl-β-cyclodextrin and 0.02% polysorbate 80 (the same applies to Example 3(2)).”
5-week-old female rats (LEW/CrlCrlj, 4 weeks old when carried in, Jackson Laboratory Japan) were divided into three groups (Group A, Group B, and Group C) using body weight measurement results as indexes. The test compound (tetramer of Ub012 (EAAAK)3) dissolved in vehicle was administered intravenously to Group A (5 mg/kg) (n=5), the test compound (tetramer of Ub012(ΔGG) (EAAAK)3) dissolved in vehicle was administered intravenously to Group B (5 mg/kg) (n=5), and vehicle was administered intravenously to Group C (n=5), respectively (Day 0). Two hours after intravenous administration, an anti-nicotinic acetylcholine receptor monoclonal antibody (mAb35, National Hospital Organization Nagasaki Kawatana Medical Center) dissolved in PBS (pH 7.4) as a drug for inducing the pathology of myasthenia gravis was administered intraperitoneally to all animals at 200 µg/rat (Day 0).

## CCCCCCCCCCCCCCCC(=O)NCCCC[C@H](NC(=O)[C@H](CNC(=O)CCOCCOCCOCCNC(=O)CNC(=O)[C@@H]1CSCC(=O)N[C@H](Cc2ccc(O)cc2)C(=O)N2CCC[C@H]2C(=O)N[C@@H](CO)C(=O)N[C@@H](Cc2ccc(O)cc2)C(=O)N[C@@H](Cc2c[nH]cn2)C(=O)N[C@@H]([C@@H](C)O)C(=O)N[C@@H](CC(N)=O)C(=O)N[C@@H](C(C)C)C(=O)N[C@@H](C(C)C)C(=O)N[C@@H](C)C(=O)N[C@@H](CO)C(=O)N[C@@H](CC(C)C)C(=O)N[C@@H](CCCCN)C(=O)N[C@@H](CCCNC(=N)N)C(=O)N1)NC(=O)CCOCCOCCOCCNC(=O)CNC(=O)[C@@H]1CSCC(=O)N[C@H](Cc2ccc(O)cc2)C(=O)N2CCC[C@H]2C(=O)N[C@@H](CO)C(=O)N[C@@H](Cc2ccc(O)cc2)C(=O)N[C@@H](Cc2c[nH]cn2)C(=O)N[C@@H]([C@@H](C)O)C(=O)N[C@@H](CC(N)=O)C(=O)N[C@@H](C(C)C)C(=O)N[C@@H](C(C)C)C(=O)N[C@@H](C)C(=O)N[C@@H](CO)C(=O)N[C@@H](CC(C)C)C(=O)N[C@@H](CCCCN)C(=O)N[C@@H](CCCNC(=N)N)C(=O)N1)C(N)=O [MuSK7-pal] (I: {CH2CO}-[dY]PSYHTNVVASLKRCG[PEG3][Dap]K(Palmitoyl)-NH2 / II: {CH2CO}-[dY]PSYHTNVVASLKRCG[PEG3]; amide I:18-II:C; thioether I:N-I:15, II:N-II:15)
0.1 mg/kg intravenously 2 h before mAb35 (Group D, Example 3(2))
  body weight: milder than that in Group A
0.25 mg/kg intravenously 2 h before mAb35 (Group C, Example 3(2))
  body weight: milder than that in Group A
0.5 mg/kg intravenously 2 h before mAb35 (Group B, Example 3(2))
  body weight: milder than that in Group A
1 mg/kg intravenously 2 h before mAb35 (Group D, Example 3(1))
  body weight: almost no significant decrease in body weight
2 mg/kg intravenously 2 h before mAb35 (Group C, Example 3(1))
  body weight: milder than that in Group A
3 mg/kg intravenously 2 h before mAb35 (Group B, Example 3(1))
  body weight: milder than that in Group A
